The record followed here is patent US7547699B2, “Tetracyclic 6 azapyrazinoindolines as 5HT2C receptor agonists for obesity” (Hoffmann-La Roche Inc., priority 2005, dated 2009).

Data set [1] deals with T1, 5-HT2A receptor (Homo sapiens, UniProt P28223). As to the kind of experiment: Functional activity, FLIPR calcium assay in CHO cells expressing human 5-HT2A. The class given is cell-based. Further details: expressed in transfected cells; host or cells: CHO cells. The note with it: for EC50: CHO cells, FLIPR, Fluo-3-AM, read-out: h5-HT2A EC50; for h5-HT2A Rel. Eff.: maximum fluorescent signal relative to 10 μM 5-HT (defined as 100%). The protocol:
(§1) The functional activity of compounds of formula (I) was assayed using a Fluorimetric Imaging Plate Reader (FLIPR). CHO cells expressing the human 5-HT2C or human 5-HT2A receptors were counted and plated into standard 96 well microtitre plates on the day before testing to give a confluent monolayer. The cells were then loaded with the calcium sensitive dye, Fluo-3-AM. Unincorporated dye was removed using an automated cell washer to leave a total volume of 100 μL/well of assay buffer (Hanks balanced salt solution containing 20 mM Hepes and 2.5 mM probenecid). The drug (dissolved in 50 μL of the assay buffer) was added at a rate of 70 μL/sec to each well of the FLIPR 96 well plate during fluorescence measurements. The measurements were taken at 1 sec intervals and the maximum fluorescent signal was measured (approx 10-15 secs after drug addition) and compared with the response produced by 10 μM 5-HT (defined as 100%) to which it was expressed as a percentage response (relative efficacy). Dose response curves were constructed using Graphpad Prism (Graph Software Inc.).

In the next data set the target is T2, human 5-HT2B receptors (Homo sapiens, UniProt P41595).
T2 construct: expressed in transfected cells; host or cells: CHO cell line
T2 sequence (P41595 whole entry): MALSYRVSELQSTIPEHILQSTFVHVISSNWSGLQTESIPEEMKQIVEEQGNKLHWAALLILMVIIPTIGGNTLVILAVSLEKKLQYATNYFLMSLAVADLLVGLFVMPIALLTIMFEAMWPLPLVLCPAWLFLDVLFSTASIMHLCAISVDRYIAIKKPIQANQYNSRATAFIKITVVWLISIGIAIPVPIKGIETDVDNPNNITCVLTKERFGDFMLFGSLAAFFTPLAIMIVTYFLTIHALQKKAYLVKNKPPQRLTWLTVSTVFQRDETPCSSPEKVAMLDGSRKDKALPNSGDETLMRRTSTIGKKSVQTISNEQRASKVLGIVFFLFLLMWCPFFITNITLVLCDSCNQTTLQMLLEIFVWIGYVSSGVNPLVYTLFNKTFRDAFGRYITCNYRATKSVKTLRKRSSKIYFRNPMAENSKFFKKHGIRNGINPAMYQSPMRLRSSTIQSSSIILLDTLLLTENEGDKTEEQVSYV
As to the kind of experiment: Binding to 5-HT2B receptor, [3H]-5-HT radioligand, Method (b). To be noted: human 5-HT2B receptors in a CHO cell line, read-out: Method (b) Ki (2B). The protocol:
(§2) The binding of compounds of formula (I) to serotonin receptors was determined in vitro by standard methods. The preparations were investigated in accordance with the assays given hereinafter.
Method (b): For the binding to the 5-HT2B receptor the 5-HT2B receptors were radiolabeled with [^3H]-5-HT. The affinity of the compounds for human 5-HT2B receptors in a CHO cell line was determined according to the procedure of K. Schmuck, C. Ullmer, P. Engels and H. Lubbert, FEBS Lett., 1994, 342, 85-90.

In data set [2] the target is T3, 5-HT2C receptor (Homo sapiens, UniProt P28335).
T3 sequence (P28335 33-458): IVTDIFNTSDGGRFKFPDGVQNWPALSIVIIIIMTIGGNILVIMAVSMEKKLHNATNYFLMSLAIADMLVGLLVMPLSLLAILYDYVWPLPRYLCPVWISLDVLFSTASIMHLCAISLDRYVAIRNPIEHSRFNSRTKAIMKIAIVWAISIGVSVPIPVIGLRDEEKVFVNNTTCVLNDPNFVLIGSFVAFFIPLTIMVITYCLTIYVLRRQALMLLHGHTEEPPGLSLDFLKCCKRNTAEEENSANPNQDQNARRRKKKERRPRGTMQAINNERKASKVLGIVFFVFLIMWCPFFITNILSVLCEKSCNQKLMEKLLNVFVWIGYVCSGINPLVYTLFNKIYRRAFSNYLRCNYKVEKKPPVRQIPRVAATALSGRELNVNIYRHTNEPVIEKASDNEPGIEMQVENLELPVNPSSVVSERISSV
The data set can be described thus: Functional activity, FLIPR calcium assay in CHO cells expressing human 5-HT2C. The class given is cell-based. Further details: expressed in transfected cells; host or cells: CHO cells. The note with it: for EC50: CHO cells, FLIPR, Fluo-3-AM, read-out: h5-HT2C EC50; for h5-HT2C Rel. Eff.: maximum fluorescent signal relative to 10 μM 5-HT (defined as 100%). The protocol:
as §1

The target in data set [3] is T3, 5-HT2C receptor. The data set can be described thus: Binding to 5-HT2C receptor, [3H]-5-HT radioligand, Method (a). Further details: expressed in transfected cells; host or cells: CHO cell line. The note with it: 5-HT2C receptors in a CHO cell line, read-out: Method (a) Ki (2C). The protocol:
as §2
Method (a): For the binding to the 5-HT2C receptor the 5-HT2C receptors were radiolabeled with [^3H]-5-HT. The affinity of the compounds for 5-HT2C receptors in a CHO cell line was determined according to the procedure of D. Hoyer, G. Engel and H. O. Kalkman, European J. Pharmacol., 1985, 118, 13-23.

Data set [4] has as its target T1, 5-HT2A receptor. As to the kind of experiment: Binding to 5-HT2A receptor, [125I]-DOI radioligand, Method (c). Further details: expressed in transfected cells; host or cells: CHO cell line. The note with it: 5-HT2A receptors in a CHO cell line, read-out: Method (c) Ki (2A). The protocol: as §2
Method (c): For the binding to the 5-HT2A receptor the 5-HT2A receptors were radiolabeled with [^125I]-DOI. The affinity of the compounds for 5-HT2A receptors in a CHO cell line was determined according to the procedure of D. J. McKenna and S. J. Peroutka, J. Neurosci., 1989, 9, 3482-90.

T1 sequence (P28223 whole entry): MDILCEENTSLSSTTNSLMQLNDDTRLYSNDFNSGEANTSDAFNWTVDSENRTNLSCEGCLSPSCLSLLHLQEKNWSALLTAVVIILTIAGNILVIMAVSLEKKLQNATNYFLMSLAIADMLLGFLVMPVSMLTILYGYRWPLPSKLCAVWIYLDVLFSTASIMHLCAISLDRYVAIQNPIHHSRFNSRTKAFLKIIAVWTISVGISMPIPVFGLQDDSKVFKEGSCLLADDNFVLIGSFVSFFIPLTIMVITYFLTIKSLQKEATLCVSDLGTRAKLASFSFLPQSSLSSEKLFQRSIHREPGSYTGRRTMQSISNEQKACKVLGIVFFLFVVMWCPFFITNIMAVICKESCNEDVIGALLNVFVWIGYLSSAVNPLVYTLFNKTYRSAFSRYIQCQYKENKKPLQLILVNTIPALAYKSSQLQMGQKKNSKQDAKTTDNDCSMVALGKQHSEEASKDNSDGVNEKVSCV

For orientation: melting point means the temperature of the solid-liquid transition. Take `Cc1c2c(nc3c1C[C@@H]1CNC[C@@H](C)N31)COC2`: the melting point fell in the range of 118 to 119 °C.
Still for that read-out and setting: the value for `C[C@@H]1OCc2cc3c(nc21)N1[C@@H](CNC[C@H]1C)C3` was 90 to 91 °C.
Usually EC50 stands for the concentration needed to bring the measured effect to its halfway point. In general, Ki refers to the dissociation constant of the complex between target and ligand, obtained from inhibition or displacement. `C[C@@H]1CNC[C@H]2Cc3cc4c(nc3N21)[C@H](C1CC1)OC4` [Example 17, (3S,5R,8aR)-3-Cyclopropyl-5-methyl-1,3,5,6,7,8,8a,9-octahydro-2-oxa-4,4b,7-triaza-cyclopehta[b]fluorene]: the EC50 on 5-HT2A receptor [1] was found to be 534 nM; on 5-HT2C receptor [2], 12.4 nM. The “h5-HT2A Rel. Eff.” value on 5-HT2A receptor [1] was 35%. Further, the inhibitory constant (Ki) on human 5-HT2B receptors came out at 760 nM; on 5-HT2C receptor [3], 23.4 nM; on 5-HT2A receptor [4] it was 635 nM. Besides, the “h5-HT2C Rel. Eff.” value on 5-HT2C receptor [2] is on record as 95%.
On to `C[C@@H]1CNC[C@H]2Cc3cc4c(nc3N21)C(C)(C)OC4` [Example 19, (5R,8aR)-3,3,5-Trimethyl-1,3,5,6,7,8,8a,9-octahydro-2-oxa-4,4b,7-triaza-cyclopenta[b]fluorene], for which the EC50 on 5-HT2A receptor [1] is over 1000 nM; at 5-HT2C receptor [2], 8.4 nM. For the same molecule, the “h5-HT2A Rel. Eff.” value at 5-HT2A receptor [1] came out at 3%. The values for the Ki at human 5-HT2B receptors, at 5-HT2C receptor [3] and at 5-HT2A receptor [4] were 26.3 nM, 5.5 nM and 80.2 nM, respectively. Besides, the “h5-HT2C Rel. Eff.” value at 5-HT2C receptor [2] is 87%.
In the case of `C[C@@H]1CNC[C@H]2Cc3cc4c(nc3N21)CSC4` [Example 33, (5R,8aR)-5-Methyl-1,3,5,6,7,8,8a,9-octahydro-2-thia-4,4b,7-triaza-cyclopenta[b]fluorene], the Ki at human 5-HT2B receptors was determined as 21.1 nM; at 5-HT2C receptor [3] it was 5.3 nM; at 5-HT2A receptor [4], 98.9 nM.
